From publication PMC10409285 (PLOS Pathogens, 2023)
Values joined by “and” are separate entries in the source; they are usually repeats but may differ in a detail not shown here. Identical values can stand only once. Like-named read-outs stand apart in the source and are kept apart here. No end group written: not given here.

Legend:
[1] = target: DP4.1 (HLA-DPA1*01:03/DPB1*04:01) (Homo sapiens, UniProt P04440+P20036); assay: fluorescence polarization competition binding assay, DP4.1
DR2b (DRB1*15:01) = target: T1, DR2b (DRB1*15:01) (Homo sapiens, UniProt P01903+P01911); assay: fluorescence polarization competition binding assay, DR2b; conditions: mean of two independent experiments
T1 construct: Soluble DRB1*15:01 and DRB5*01:01 with a covalently linked CLIP peptides; covalently linked CLIP peptide (3C-protease-cleavable linker) (cleaved yes); purchased NIH Tetramer Core Facility / Emory University (a gift of Drs. John Altman and Richard Willis, not bought)

DR2a (DRB5*01:01) = DR2a (DRB5*01:01) (Homo sapiens, UniProt P01903+Q30154); assay: fluorescence polarization competition binding assay, DR2a
[2] = fluorescence polarization competition, soluble DP4.1-Clip 250 nM, 25 nM Alexa488 oxytocinase probe peptide, 500 nM HLA-DM, 24 h 37°C, mean of two independent experiments, read-out: Mean IC50, DPA*01:03/DPB1*04:01

Compound | IC50 [1] | IC50 [1, 2] [µM] | further results
CC(C)C[C@H](NC(=O)[C@H](CCCCN)NC(=O)[C@@H](NC(=O)[C@H](CCCCN)NC(=O)[C@H](CC(=O)O)NC(=O)[C@H](Cc1ccccc1)NC(=O)[C@H](CC(C)C)NC(=O)[C@H](CC(C)C)NC(=O)[C@H](CC(=O)O)NC(=O)[C@H](CCC(=O)O)NC(=O)[C@H](Cc1ccccc1)NC(=O)[C@H](Cc1ccccc1)NC(=O)[C@H](CO)NC(=O)[C@H](CCCNC(=N)N)NC(=O)[C@H](CO)NC(=O)[C@H](CO)NC(=O)[C@@H](N)CO)C(C)C)C(=O)O [HKU1-151] | 2.57 µM |  | 
CC(C)C[C@H](NC(=O)CNC(=O)[C@H](CO)NC(=O)[C@@H](NC(=O)[C@@H](NC(=O)[C@@H](NC(=O)[C@H](CCCCN)NC(=O)[C@H](CO)NC(=O)[C@H](Cc1ccccc1)NC(=O)[C@H](CC(C)C)NC(=O)[C@H](CC(C)C)NC(=O)[C@H](CC(=O)O)NC(=O)[C@H](CCC(=O)O)NC(=O)[C@H](CC(C)C)NC(=O)[C@H](C)NC(=O)[C@@H](N)CO)C(C)C)C(C)C)[C@@H](C)O)C(=O)NCC(=O)O [NL63-146] | 3.48 µM |  | 
CC[C@H](C)[C@H](NC(=O)[C@H](C)NC(=O)[C@H](CO)NC(=O)[C@H](CCCNC(=N)N)NC(=O)CNC(=O)[C@H](C)NC(=O)[C@@H](NC(=O)[C@@H](N)CCCNC(=N)N)C(C)C)C(=O)N[C@@H](CCC(=O)O)C(=O)N[C@@H](CC(=O)O)C(=O)N[C@H](C(=O)N[C@@H](CC(C)C)C(=O)N[C@@H](Cc1ccccc1)C(=O)N[C@@H](CO)C(=O)N[C@@H](CCCCN)C(=O)N[C@@H](CC(C)C)C(=O)N[C@H](C(=O)O)C(C)C)[C@@H](C)CC [Peptide 229E-115] | 5.99 µM |  | 
CC(C)C[C@H](NC(=O)[C@H](CCC(=O)O)NC(=O)[C@H](CC(C)C)NC(=O)[C@H](CCCNC(=N)N)NC(=O)[C@H](CO)NC(=O)CNC(=O)[C@H](Cc1ccccc1)NC(=O)[C@H](Cc1ccccc1)NC(=O)[C@H](Cc1ccccc1)NC(=O)[C@H](C)NC(=O)CN)C(=O)N[C@@H](C)C(=O)N[C@@H](CCCCN)C(=O)N[C@H](C(=O)N[C@@H](CCC(N)=O)C(=O)N[C@@H](CC(N)=O)C(=O)O)C(C)C [Peptide P2] | 118 µM |  | 
CC[C@H](C)[C@H](NC(=O)CNC(=O)[C@H](CC(N)=O)NC(=O)[C@@H](NC(=O)[C@H](Cc1ccccc1)NC(=O)[C@H](CC(=O)O)NC(=O)[C@H](CO)NC(=O)[C@@H](N)CC(C)C)[C@@H](C)CC)C(=O)N[C@@H](Cc1ccccc1)C(=O)N[C@@H](C)C(=O)N[C@@H](CCCCN)C(=O)N[C@H](C(=O)N[C@@H](CCCCN)C(=O)N[C@@H](CC(N)=O)C(=O)N[C@H](C(=O)N[C@@H](CCCCN)C(=O)O)[C@@H](C)O)C(C)C [Peptide P3] | 3.16 µM |  | 
CC[C@H](C)[C@H](NC(=O)[C@H](C)NC(=O)[C@H](CO)NC(=O)[C@@H](N)CCCNC(=N)N)C(=O)N[C@@H](CCC(=O)O)C(=O)N[C@@H](CC(=O)O)C(=O)N[C@@H](CC(C)C)C(=O)N[C@@H](CC(C)C)C(=O)N[C@@H](Cc1ccccc1)C(=O)N[C@@H](CC(=O)O)C(=O)N[C@@H](CCCCN)C(=O)N[C@H](C(=O)N[C@@H](CCCCN)C(=O)N[C@@H](CC(C)C)C(=O)N[C@@H](CO)C(=O)O)C(C)C [Peptide P4] | 2.99 µM |  | 
CC[C@H](C)[C@H](N)C(=O)N[C@H](C(=O)N[C@H](C(=O)NCC(=O)N[C@@H](Cc1ccc(O)cc1)C(=O)N[C@@H](CCCNC(=N)N)C(=O)N[C@@H](Cc1ccccc1)C(=O)N[C@H](C(=O)N[C@@H](CC(N)=O)C(=O)N[C@@H](Cc1ccccc1)C(=O)N[C@@H](CCC(=O)O)C(=O)N1CCC[C@H]1C(=O)N[C@@H](Cc1ccccc1)C(=O)N[C@H](C(=O)O)[C@@H](C)O)[C@@H](C)O)[C@@H](C)O)[C@@H](C)O [Peptide P5] | < 1 µM and 0.3 µM |  | 
CC[C@H](C)[C@H](NC(=O)[C@H](Cc1ccccc1)NC(=O)[C@H](Cc1ccc(O)cc1)NC(=O)[C@H](CC(C)C)NC(=O)CNC(=O)[C@H](Cc1ccc(O)cc1)NC(=O)[C@@H]1CCCN1C(=O)[C@H](C)N)C(=O)N[C@@H](Cc1c[nH]cn1)C(=O)N[C@@H](Cc1ccccc1)C(=O)N[C@@H](CO)C(=O)N[C@@H](Cc1ccc(O)cc1)C(=O)N[C@H](C(=O)N1CCC[C@H]1C(=O)N[C@H](C(=O)N[C@@H](CCCCN)C(=O)O)[C@@H](C)O)C(C)C [Peptide P6] | 80.5 µM |  | 
CC[C@H](C)[C@H](N)C(=O)N[C@@H](Cc1c[nH]cn1)C(=O)N[C@@H](Cc1ccccc1)C(=O)N[C@@H](CO)C(=O)N[C@@H](Cc1ccc(O)cc1)C(=O)N[C@H](C(=O)N1CCC[C@H]1C(=O)N[C@H](C(=O)N[C@@H](CCCCN)C(=O)N[C@@H](Cc1ccc(O)cc1)C(=O)N[C@H](C(=O)N[C@H](C(=O)N[C@@H](C)C(=O)N[C@@H](CCCNC(=N)N)C(=O)N[C@H](C(=O)N[C@@H](CO)C(=O)N1CCC[C@H]1C(=O)NCC(=O)O)C(C)C)[C@@H](C)O)C(C)C)[C@@H](C)O)C(C)C [Peptide P7] | 9.44 µM |  | 
CC(C)[C@H](NC(=O)[C@H](CC(N)=O)NC(=O)CNC(=O)CNC(=O)[C@H](CO)NC(=O)[C@@H]1CCCN1)C(=O)N[C@H](C(=O)N1CCC[C@H]1C(=O)N[C@@H](Cc1ccc(O)cc1)C(=O)N[C@@H](Cc1ccc(O)cc1)C(=O)N[C@@H](CO)C(=O)N[C@@H](Cc1c[nH]c2ccccc12)C(=O)N[C@@H](Cc1ccccc1)C(=O)N[C@@H](CO)C(=O)NCC(=O)O)C(C)C [Peptide P10] |  |  | IC50 (DR2b (DRB1*15:01)): 0.26 µM; IC50 (DR2a (DRB5*01:01)): 72.9 µM
CC[C@H](C)[C@H](NC(=O)CNC(=O)[C@H](CC(=O)O)NC(=O)[C@H](CCC(N)=O)NC(=O)[C@H](CC(N)=O)NC(=O)[C@H](Cc1ccccc1)NC(=O)[C@H](C)NC(=O)[C@H](CC(C)C)NC(=O)[C@H](CC(C)C)NC(=O)[C@H](Cc1ccc(O)cc1)NC(=O)[C@H](CCC(N)=O)NC(=O)[C@H](CCCNC(=N)N)NC(=O)[C@@H](N)CO)C(=O)N[C@H](C(=O)N[C@@H](Cc1ccccc1)C(=O)N[C@@H](CC(N)=O)C(=O)O)[C@@H](C)CC [Peptide P13] |  |  | IC50 (DR2a (DRB5*01:01)): 43.8 µM
CC(C)C[C@H](NC(=O)[C@@H](NC(=O)[C@@H]1CCCN1C(=O)[C@@H](N)CC(N)=O)C(C)C)C(=O)N1CCC[C@H]1C(=O)N[C@@H](Cc1ccccc1)C(=O)N[C@@H](CC(N)=O)C(=O)N[C@@H](CC(=O)O)C(=O)NCC(=O)N[C@H](C(=O)N[C@@H](Cc1ccc(O)cc1)C(=O)N[C@@H](Cc1ccccc1)C(=O)N[C@@H](C)C(=O)N[C@@H](CO)C(=O)N[C@H](C(=O)N[C@@H](CCC(=O)O)C(=O)O)[C@@H](C)O)C(C)C [S#17 (CoV2)] |  | 76 | 
CC[C@H](C)[C@H](NC(=O)[C@H](CO)NC(=O)[C@H](CCC(N)=O)NC(=O)[C@H](CO)NC(=O)[C@H](C)NC(=O)[C@@H](NC(=O)[C@@H](N)CO)C(C)C)C(=O)N[C@H](C(=O)N[C@@H](C)C(=O)N[C@@H](Cc1ccc(O)cc1)C(=O)N[C@H](C(=O)N[C@@H](CCSC)C(=O)N[C@@H](CO)C(=O)N[C@@H](CC(C)C)C(=O)NCC(=O)N[C@@H](C)C(=O)O)[C@@H](C)O)[C@@H](C)CC [S#138 (CoV2)] |  | 438 | 
CC[C@H](C)[C@H](NC(=O)[C@@H](NC(=O)[C@@H](N)CO)[C@@H](C)CC)C(=O)N[C@@H](C)C(=O)N[C@@H](Cc1ccc(O)cc1)C(=O)N[C@H](C(=O)N[C@@H](CCSC)C(=O)N[C@@H](CO)C(=O)N[C@@H](CC(C)C)C(=O)NCC(=O)N[C@@H](C)C(=O)N[C@@H](CCC(=O)O)C(=O)N[C@@H](CC(N)=O)C(=O)N[C@@H](CO)C(=O)N[C@H](C(=O)N[C@@H](C)C(=O)O)C(C)C)[C@@H](C)O [S#139 (CoV2)] |  | 292 | 
CC[C@H](C)[C@H](NC(=O)[C@H](Cc1ccccc1)NC(=O)[C@H](CO)NC(=O)[C@H](CCCNC(=N)N)NC(=O)[C@H](CCCCN)NC(=O)[C@H](CO)NC(=O)[C@@H]1CCCN1C(=O)[C@@H](N)CCCCN)C(=O)N[C@@H](CCC(=O)O)C(=O)N[C@@H](CC(=O)O)C(=O)N[C@@H](CC(C)C)C(=O)N[C@@H](CC(C)C)C(=O)N[C@@H](Cc1ccccc1)C(=O)N[C@@H](CC(N)=O)C(=O)N[C@@H](CCCCN)C(=O)N[C@H](C(=O)O)C(C)C [S#163 (CoV2)] |  | 0.29 | 
CC[C@H](C)[C@H](NC(=O)[C@H](Cc1ccccc1)NC(=O)[C@@H](N)CO)C(=O)N[C@@H](CCC(=O)O)C(=O)N[C@@H](CC(=O)O)C(=O)N[C@@H](CC(C)C)C(=O)N[C@@H](CC(C)C)C(=O)N[C@@H](Cc1ccccc1)C(=O)N[C@@H](CC(N)=O)C(=O)N[C@@H](CCCCN)C(=O)N[C@H](C(=O)N[C@H](C(=O)N[C@@H](CC(C)C)C(=O)N[C@@H](C)C(=O)N[C@@H](CC(=O)O)C(=O)N[C@@H](C)C(=O)O)[C@@H](C)O)C(C)C [S#164 (CoV2)] |  | 128 | 
CC(C)C[C@H](NC(=O)[C@H](Cc1ccccc1)NC(=O)[C@@H](NC(=O)[C@@H](NC(=O)CNC(=O)[C@H](Cc1c[nH]cn1)NC(=O)[C@@H]1CCCN1C(=O)[C@H](C)N)C(C)C)C(C)C)C(=O)N[C@@H](Cc1c[nH]cn1)C(=O)N[C@H](C(=O)N[C@H](C(=O)N[C@@H](Cc1ccc(O)cc1)C(=O)N[C@H](C(=O)N1CCC[C@H]1C(=O)N[C@@H](C)C(=O)N[C@@H](CCC(N)=O)C(=O)O)C(C)C)[C@@H](C)O)C(C)C [S#212 (CoV2)] |  | 253 | 
CC(C)C[C@H](NC(=O)[C@H](Cc1ccccc1)NC(=O)[C@@H](N)C(C)C)C(=O)N[C@@H](Cc1c[nH]cn1)C(=O)N[C@H](C(=O)N[C@H](C(=O)N[C@@H](Cc1ccc(O)cc1)C(=O)N[C@H](C(=O)N1CCC[C@H]1C(=O)N[C@@H](C)C(=O)N[C@@H](CCC(N)=O)C(=O)N[C@@H](CCC(=O)O)C(=O)N[C@@H](CCCCN)C(=O)N[C@@H](CC(N)=O)C(=O)N[C@@H](Cc1ccccc1)C(=O)N[C@H](C(=O)O)[C@@H](C)O)C(C)C)[C@@H](C)O)C(C)C [S#213 (CoV2)] |  | 242 | 
NRGRQFYEFYNDVKPP [Peptide P14] | 5.14 µM |  | 
PSASAFFGMSRIGMEVT [N#45 (CoV2)] |  | 544 | 
YLAISNELLLTVPTK [Peptide P1] | < 1 µM and 0.41 µM |  | 
YVYSRVKNLNSSRVPDL [E#9 (CoV2)] |  | 661 | 
